The experiment has as its system HCV replicon, genotype-1a variant with glutamine 30 changed to glutamate in the NS5A protein. In words: microbe, parasite or virus in culture. Format: cell-based, HCV genotype 1a. The following applies: HCV replicon genotype 1a Q30E (Q→E) variant; test compound titrated with an NS5A-targeting compound (BMS-790052 fixed at 200 nM); ranking of synergist activity. In outline:
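Synergy was assessed by combining several fixed amounts of an NS5A-targeting compound with a titration of the second compound of interest.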
(In antiviral work, replicon cells carry a viral genome segment that copies itself.)

Where only a bound is given, the exact number is not on record here.

These results are taken from patent publication US9326973B2, “Hepatitis C virus inhibitors” (priority 2012, dated 2016).

Regarding `O=C(Cc1ccncc1)N1CCC[C@H]1c1ncc(-c2ccc(-c3ccc(-c4cnc([C@@H]5CCCN5C(=O)Cc5ccncc5)[nH]4)cc3)cc2)[nH]1` [Compound S-150], the “Fold-Synergistic 1a (Q30E)” value is listed as under 10 fold. The result for `O=C(CCn1ccc2ccccc21)N1CCC[C@H]1c1ncc(-c2ccc(-c3ccc(-c4cnc([C@@H]5CCCN5C(=O)CCn5ccc6ccccc65)[nH]4)cc3)cc2)[nH]1` [Compound S-151] reads over 10 fold. For the compound `Cc1ccc(C2(C(=O)N3CCC[C@H]3c3ncc(-c4ccc(-c5ccc(-c6cnc([C@@H]7CCCN7C(=O)C7(c8ccc(C)cc8)CCCC7)[nH]6)cc5)cc4)[nH]3)CCCC2)cc1` [Compound S-152], the “Fold-Synergistic 1a (Q30E)” value is listed as under 10 fold. The result for `Cc1cn(CCC(=O)N2CCC[C@H]2c2ncc(-c3ccc(-c4ccc(-c5cnc([C@@H]6CCCN6C(=O)CCn6cc(C)c7ccccc76)[nH]5)cc4)cc3)[nH]2)c2ccccc12` [Compound S-153] reads over 10 fold; that for `O=C(Cc1ccc(Oc2ccccc2)cc1)N1CCC[C@H]1c1ncc(-c2ccc(-c3ccc(-c4cnc([C@@H]5CCCN5C(=O)Cc5ccc(Oc6ccccc6)cc5)[nH]4)cc3)cc2)[nH]1` [Compound S-154], over 10 fold. Then `O=C(N1CCC[C@H]1c1ncc(-c2ccc(-c3ccc(-c4cnc([C@@H]5CCCN5C(=O)C5(c6ccccc6F)CCCC5)[nH]4)cc3)cc2)[nH]1)C1(c2ccccc2F)CCCC1` [Compound S-155], with under 10 fold.

As for `O=C(N1CCC[C@H]1c1ncc(-c2ccc(-c3ccc(-c4cnc([C@@H]5CCCN5C(=O)C5(c6ccc(F)cc6Cl)CCCC5)[nH]4)cc3)cc2)[nH]1)C1(c2ccc(F)cc2Cl)CCCC1` [Compound S-156], the “Fold-Synergistic 1a (Q30E)” value is given as under 10 fold. The result for `O=C(C1Cc2ccccc2O1)N1CCC[C@H]1c1ncc(-c2ccc(-c3ccc(-c4cnc([C@@H]5CCCN5C(=O)C5Cc6ccccc6O5)[nH]4)cc3)cc2)[nH]1` (some centres unmarked) [Compound S-157] reads over 10 fold; that for `COc1ccc(C2(C(=O)N3CCC[C@H]3c3ncc(-c4ccc(-c5ccc(-c6cnc([C@@H]7CCCN7C(=O)C7(c8ccc(OC)cc8)CCCC7)[nH]6)cc5)cc4)[nH]3)CCCC2)cc1` [Compound S-158], under 10 fold.

As to `O=C(N1CCC[C@H]1c1ncc(-c2ccc(-c3ccc(-c4cnc([C@@H]5CCCN5C(=O)C5(c6ccccc6)CC5)[nH]4)cc3)cc2)[nH]1)C1(c2ccccc2)CC1` [Compound S-159], the “Fold-Synergistic 1a (Q30E)” value is given as under 10 fold.

Turning to `CC1(C(=O)N2CCC[C@H]2c2ncc(-c3ccc(-c4ccc(-c5cnc([C@@H]6CCCN6C(=O)C6(C)CC6)[nH]5)cc4)cc3)[nH]2)CC1` [Compound S-160], the “Fold-Synergistic 1a (Q30E)” value is reported as under 10 fold. With `O=C(C1CCC1)N1CCC[C@H]1c1ncc(-c2ccc(-c3ccc(-c4cnc([C@@H]5CCCN5C(=O)C5CCC5)[nH]4)cc3)cc2)[nH]1` [Compound S-162], the “Fold-Synergistic 1a (Q30E)” value was under 10 fold.

As to `O=C(C1Cc2ccccc21)N1CCC[C@H]1c1ncc(-c2ccc(-c3ccc(-c4cnc([C@@H]5CCCN5C(=O)C5Cc6ccccc65)[nH]4)cc3)cc2)[nH]1` (some centres unmarked) [Compound S-163], the “Fold-Synergistic 1a (Q30E)” value is recorded as under 10 fold.

As to `O=C(C1CCCC1)N1CCC[C@H]1c1ncc(-c2ccc(-c3ccc(-c4cnc([C@@H]5CCCN5C(=O)C5CCCC5)[nH]4)cc3)cc2)[nH]1` [Compound S-164], the “Fold-Synergistic 1a (Q30E)” value is reported as under 10 fold. The result for `O=C(CC1CCCC1)N1CCC[C@H]1c1ncc(-c2ccc(-c3ccc(-c4cnc([C@@H]5CCCN5C(=O)CC5CCCC5)[nH]4)cc3)cc2)[nH]1` [Compound S-165] reads over 10 fold. Turning to `O=C(CCC1CCCC1)N1CCC[C@H]1c1ncc(-c2ccc(-c3ccc(-c4cnc([C@@H]5CCCN5C(=O)CCC5CCCC5)[nH]4)cc3)cc2)[nH]1` [Compound S-166], the “Fold-Synergistic 1a (Q30E)” value is recorded as over 10 fold. The result for `O=C(C1CCCCC1)N1CCC[C@H]1c1ncc(-c2ccc(-c3ccc(-c4cnc([C@@H]5CCCN5C(=O)C5CCCCC5)[nH]4)cc3)cc2)[nH]1` [Compound S-167] reads under 10 fold; that for `O=C(CC1CCCCC1)N1CCC[C@H]1c1ncc(-c2ccc(-c3ccc(-c4cnc([C@@H]5CCCN5C(=O)CC5CCCCC5)[nH]4)cc3)cc2)[nH]1` [Compound S-168], over 10 fold; that for `CCC(C)C(=O)N1CCC[C@H]1c1ncc(-c2ccc(-c3ccc(-c4cnc([C@@H]5CCCN5C(=O)C(C)CC)[nH]4)cc3)cc2)[nH]1` (some centres unmarked) [Compound S-169], under 10 fold. Then `CCCC(C)C(=O)N1CCC[C@H]1c1ncc(-c2ccc(-c3ccc(-c4cnc([C@@H]5CCCN5C(=O)C(C)CCC)[nH]4)cc3)cc2)[nH]1` (some centres unmarked) [Compound S-170], with under 10 fold. For the compound `N#CCC(=O)N1CCC[C@H]1c1ncc(-c2ccc(-c3ccc(-c4cnc([C@@H]5CCCN5C(=O)CC#N)[nH]4)cc3)cc2)[nH]1` [Compound S-171], the “Fold-Synergistic 1a (Q30E)” value is under 10 fold. On to `CCC(C)CC(=O)N1CCC[C@H]1c1ncc(-c2ccc(-c3ccc(-c4cnc([C@@H]5CCCN5C(=O)CC(C)CC)[nH]4)cc3)cc2)[nH]1` (some centres unmarked) [Compound S-172], for which the “Fold-Synergistic 1a (Q30E)” value was over 10 fold. As to `COC(=O)CCC(=O)N1CCC[C@H]1c1ncc(-c2ccc(-c3ccc(-c4cnc([C@@H]5CCCN5C(=O)CCC(=O)OC)[nH]4)cc3)cc2)[nH]1` [Compound S-173], the “Fold-Synergistic 1a (Q30E)” value is under 10 fold. Consider `CC(C)CCC(=O)N1CCC[C@H]1c1ncc(-c2ccc(-c3ccc(-c4cnc([C@@H]5CCCN5C(=O)CCC(C)C)[nH]4)cc3)cc2)[nH]1` [Compound S-174], for which the “Fold-Synergistic 1a (Q30E)” value is under 10 fold.

In the case of `Cn1cccc1C(=O)N1CCC[C@H]1c1ncc(-c2ccc(-c3ccc(-c4cnc([C@@H]5CCCN5C(=O)c5cccn5C)[nH]4)cc3)cc2)[nH]1` [Compound S-175], the “Fold-Synergistic 1a (Q30E)” value is on record as under 10 fold. Regarding `O=C(C1CCCCCC1)N1CCC[C@H]1c1ncc(-c2ccc(-c3ccc(-c4cnc([C@@H]5CCCN5C(=O)C5CCCCCC5)[nH]4)cc3)cc2)[nH]1` [Compound S-176], the “Fold-Synergistic 1a (Q30E)” value is over 10 fold. The result for `CC(C)(C)C(=O)N1CCC[C@H]1c1ncc(-c2ccc(-c3ccc(-c4cnc([C@@H]5CCCN5C(=O)C(C)(C)C)[nH]4)cc3)cc2)[nH]1` [Compound S-177] reads under 10 fold; that for `O=C(Cc1ccccc1F)N1CCC[C@H]1c1ncc(-c2ccc(-c3ccc(-c4cnc([C@@H]5CCCN5C(=O)Cc5ccccc5F)[nH]4)cc3)cc2)[nH]1` [Compound S-178], under 10 fold.

On to `C#CCCC(=O)N1CCC[C@H]1c1ncc(-c2ccc(-c3ccc(-c4cnc([C@@H]5CCCN5C(=O)CCC#C)[nH]4)cc3)cc2)[nH]1` [Compound S-179], for which the “Fold-Synergistic 1a (Q30E)” value is reported as under 10 fold. `CCCCC(=O)N1CCC[C@H]1c1ncc(-c2ccc(-c3ccc(-c4cnc([C@@H]5CCCN5C(=O)CCCC)[nH]4)cc3)cc2)[nH]1` [Compound S-180]: the “Fold-Synergistic 1a (Q30E)” value is under 10 fold.

As to `CCCCCC(=O)N1CCC[C@H]1c1ncc(-c2ccc(-c3ccc(-c4cnc([C@@H]5CCCN5C(=O)CCCCC)[nH]4)cc3)cc2)[nH]1` [Compound S-181], the “Fold-Synergistic 1a (Q30E)” value is listed as over 10 fold. The result for `O=C(c1cccs1)N1CCC[C@H]1c1ncc(-c2ccc(-c3ccc(-c4cnc([C@@H]5CCCN5C(=O)c5cccs5)[nH]4)cc3)cc2)[nH]1` [Compound S-182] reads under 10 fold. As to `O=C(c1ccsc1)N1CCC[C@H]1c1ncc(-c2ccc(-c3ccc(-c4cnc([C@@H]5CCCN5C(=O)c5ccsc5)[nH]4)cc3)cc2)[nH]1` [Compound S-183], the “Fold-Synergistic 1a (Q30E)” value is reported as under 10 fold. With `O=C(c1ccccn1)N1CCC[C@H]1c1ncc(-c2ccc(-c3ccc(-c4cnc([C@@H]5CCCN5C(=O)c5ccccn5)[nH]4)cc3)cc2)[nH]1` [Compound S-184], the “Fold-Synergistic 1a (Q30E)” value was under 10 fold. The result for `O=C(c1cccnc1)N1CCC[C@H]1c1ncc(-c2ccc(-c3ccc(-c4cnc([C@@H]5CCCN5C(=O)c5cccnc5)[nH]4)cc3)cc2)[nH]1` [Compound S-185] reads under 10 fold; that for `NC(=O)CCC(=O)N1CCC[C@H]1c1ncc(-c2ccc(-c3ccc(-c4cnc([C@@H]5CCCN5C(=O)CCC(N)=O)[nH]4)cc3)cc2)[nH]1` [Compound S-186], under 10 fold. As for `O=C(c1ccnnc1)N1CCC[C@H]1c1ncc(-c2ccc(-c3ccc(-c4cnc([C@@H]5CCCN5C(=O)c5ccnnc5)[nH]4)cc3)cc2)[nH]1` [Compound S-187], the “Fold-Synergistic 1a (Q30E)” value is listed as under 10 fold. The result for `Cc1ncccc1C(=O)N1CCC[C@H]1c1ncc(-c2ccc(-c3ccc(-c4cnc([C@@H]5CCCN5C(=O)c5cccnc5C)[nH]4)cc3)cc2)[nH]1` [Compound S-188] reads under 10 fold; that for `Cc1ccoc1C(=O)N1CCC[C@H]1c1ncc(-c2ccc(-c3ccc(-c4cnc([C@@H]5CCCN5C(=O)c5occc5C)[nH]4)cc3)cc2)[nH]1` [Compound S-189], over 10 fold. The result for `CCCC(C)(C)C(=O)N1CCC[C@H]1c1ncc(-c2ccc(-c3ccc(-c4cnc([C@@H]5CCCN5C(=O)C(C)(C)CCC)[nH]4)cc3)cc2)[nH]1` [Compound S-190] reads under 10 fold; that for `Cc1cccc(C(=O)N2CCC[C@H]2c2ncc(-c3ccc(-c4ccc(-c5cnc([C@@H]6CCCN6C(=O)c6cccc(C)n6)[nH]5)cc4)cc3)[nH]2)n1` [Compound S-191], under 10 fold; that for `COCCC(=O)N1CCC[C@H]1c1ncc(-c2ccc(-c3ccc(-c4cnc([C@@H]5CCCN5C(=O)CCOC)[nH]4)cc3)cc2)[nH]1` [Compound S-192], under 10 fold. The result for `O=C(CC(F)(F)F)N1CCC[C@H]1c1ncc(-c2ccc(-c3ccc(-c4cnc([C@@H]5CCCN5C(=O)CC(F)(F)F)[nH]4)cc3)cc2)[nH]1` [Compound S-193] reads under 10 fold; that for `N#CC1(C(=O)N2CCC[C@H]2c2ncc(-c3ccc(-c4ccc(-c5cnc([C@@H]6CCCN6C(=O)C6(C#N)CC6)[nH]5)cc4)cc3)[nH]2)CC1` [Compound S-194], under 10 fold.
